Conditions: Liquid, Capillary tube (Ostwald / Ubbelohde) method

CCCCCCCCCCCC [dodecane]
Conditions | viscosity [mPa·s]
298.2 K, 6020 kPa | 1.461
298.2 K, 8050 kPa | 1.497
298.2 K, 10020 kPa | 1.533
303.3 K, 10020 kPa | 1.394
303.4 K, 8050 kPa | 1.365
304.9 K, 6020 kPa | 1.348
313.3 K, 10020 kPa | 1.184
313.4 K, 8000 kPa | 1.162
314.5 K, 5990 kPa | 1.135
323.1 K, 8010 kPa | 1.007
323.4 K, 6050 kPa | 0.9748
323.4 K, 10000 kPa | 1.021
333.3 K, 8030 kPa | 0.8787
333.4 K, 10000 kPa | 0.8918
334.1 K, 6010 kPa | 0.8555
343.2 K, 8070 kPa | 0.7787
343.3 K, 5990 kPa | 0.7562
343.3 K, 10010 kPa | 0.79
353.4 K, 6080 kPa | 0.6746
353.4 K, 9980 kPa | 0.703
353.6 K, 8020 kPa | 0.6919
363.3 K, 10050 kPa | 0.6332
363.7 K, 8020 kPa | 0.6209
364 K, 6040 kPa | 0.6028
373.1 K, 10070 kPa | 0.5743
373.9 K, 8020 kPa | 0.5622
374 K, 6000 kPa | 0.5462
383 K, 6010 kPa | 0.5011
383.2 K, 10000 kPa | 0.523
383.4 K, 8050 kPa | 0.5137
393 K, 10020 kPa | 0.4798
393.1 K, 6080 kPa | 0.4584
393.6 K, 8030 kPa | 0.4694
403 K, 6040 kPa | 0.4213
403.1 K, 10040 kPa | 0.4407
404.1 K, 8020 kPa | 0.4304
412.9 K, 10010 kPa | 0.4076
413.2 K, 6080 kPa | 0.3885
413.7 K, 7990 kPa | 0.3987
423 K, 6080 kPa | 0.3581
423.4 K, 10000 kPa | 0.3765
423.9 K, 8050 kPa | 0.3686
432.9 K, 10020 kPa | 0.3504
433.2 K, 6010 kPa | 0.3334
433.3 K, 8000 kPa | 0.3405
443.2 K, 10050 kPa | 0.3257
443.5 K, 6020 kPa | 0.3092
443.5 K, 8010 kPa | 0.3152
453.3 K, 6020 kPa | 0.2855
453.3 K, 9950 kPa | 0.3036
454 K, 8040 kPa | 0.2936
463.3 K, 10010 kPa | 0.2839
463.4 K, 6040 kPa | 0.2664
464.1 K, 8020 kPa | 0.2738
473.3 K, 10050 kPa | 0.2657
473.4 K, 6040 kPa | 0.251
473.5 K, 8010 kPa | 0.2525
483.4 K, 6050 kPa | 0.2305
483.4 K, 8080 kPa | 0.2405
483.4 K, 10000 kPa | 0.2489
493.2 K, 10050 kPa | 0.2338
493.4 K, 6040 kPa | 0.216
493.4 K, 8010 kPa | 0.2247
502.7 K, 7960 kPa | 0.2075
503.2 K, 10010 kPa | 0.2197
503.4 K, 6080 kPa | 0.2005
513 K, 8040 kPa | 0.1945
513 K, 10000 kPa | 0.207
514.2 K, 6050 kPa | 0.186
523 K, 8000 kPa | 0.1822
523.7 K, 5970 kPa | 0.1737
523.7 K, 10040 kPa | 0.1949
533.3 K, 8040 kPa | 0.1736
533.5 K, 6040 kPa | 0.1638
533.5 K, 10070 kPa | 0.1825
542.9 K, 6010 kPa | 0.1526
542.9 K, 8060 kPa | 0.1603
542.9 K, 9950 kPa | 0.1682
552.9 K, 6070 kPa | 0.1419
552.9 K, 10020 kPa | 0.158
553.2 K, 8010 kPa | 0.1506
563 K, 6050 kPa | 0.1337
563 K, 8020 kPa | 0.1414
563 K, 10020 kPa | 0.1509
573 K, 6010 kPa | 0.124
573 K, 8020 kPa | 0.1347
573 K, 10040 kPa | 0.1437
582.8 K, 6000 kPa | 0.1159
582.8 K, 10010 kPa | 0.132
582.9 K, 7960 kPa | 0.1265
592.9 K, 8070 kPa | 0.12
593 K, 6020 kPa | 0.1104
593 K, 10000 kPa | 0.1263
602.9 K, 8020 kPa | 0.1128
603.1 K, 6010 kPa | 0.1048
603.1 K, 10010 kPa | 0.1186
612.9 K, 8020 kPa | 0.1058
613.1 K, 6040 kPa | 0.0969
613.1 K, 10010 kPa | 0.1116
623 K, 7990 kPa | 0.1003
623.2 K, 6050 kPa | 0.0908
623.2 K, 10050 kPa | 0.1056
632.8 K, 8040 kPa | 0.0933
633.5 K, 6020 kPa | 0.0848
633.5 K, 10010 kPa | 0.0992
643 K, 8050 kPa | 0.0878
643.4 K, 6020 kPa | 0.0789
643.4 K, 10010 kPa | 0.0943
652.9 K, 8020 kPa | 0.0824
653.4 K, 6070 kPa | 0.0733
653.4 K, 10040 kPa | 0.087
663.1 K, 8010 kPa | 0.0775
663.2 K, 6010 kPa | 0.0682
663.2 K, 10050 kPa | 0.0823
672.9 K, 8010 kPa | 0.0727
673.5 K, 6040 kPa | 0.0635
673.5 K, 9980 kPa | 0.0785
683.2 K, 8050 kPa | 0.0685
683.2 K, 10040 kPa | 0.0746
683.3 K, 6010 kPa | 0.059
693.2 K, 6010 kPa | 0.0548
693.2 K, 8020 kPa | 0.0643
693.2 K, 10010 kPa | 0.0712

Source: the NIST ThermoML archive (doi:10.1021/acs.jced.7b00866)
